Converted amounts (≈) assume the structure as drawn. The source made the active and inactive calls. The rule behind the calls is not given here.
Key:
[1] = system: Mycobacterium tuberculosis; assay: AntiMycobacterium tuberculosis activity Non-Replicating form: Average MIC90 (uM); assay type: functional
[2] = system: Mycobacterium tuberculosis; assay: AntiMycobacterium tuberculosis activity 1-week GAST/Fe MIC (uM); assay type: functional; conditions: 168 h
[3] = system: Mycobacterium tuberculosis; assay: AntiMycobacterium tuberculosis activity 2-week GAST/Fe MIC (uM); assay type: functional; conditions: 336 h
[4] = system: Mycobacterium tuberculosis; assay: AntiMycobacterium tuberculosis activity 1-week 7H9/ADC/Tw MIC (uM); assay type: functional; conditions: 168 h
[5] = system: Mycobacterium tuberculosis; assay: AntiMycobacterium tuberculosis activity 2-week 7H9/ADC/Tw MIC (uM); assay type: functional; conditions: 336 h
[6] = system: Mycobacterium tuberculosis; assay: AntiMycobacterium tuberculosis activity 2-week Alamar Blue 7H9/ADC/Tw MIC (uM); assay type: functional; conditions: 336 h
[7] = system: Mycobacterium tuberculosis; assay: AntiMycobacterium tuberculosis activity 1-week 7H9/glucose/BSA/Tx MIC (uM); assay type: functional; conditions: 168 h
[8] = system: Mycobacterium tuberculosis; assay: AntiMycobacterium tuberculosis activity 2-week 7H9/glucose/BSA/Tx MIC (uM); assay type: functional; conditions: 336 h
[9] = system: Mycobacterium tuberculosis; assay: AntiMycobacterium tuberculosis activity 1-week 7H9/DPPC/cholesterol/BSA/Tx MIC (uM); assay type: functional; conditions: 168 h
[10] = system: Mycobacterium tuberculosis; assay: AntiMycobacterium tuberculosis activity 2-week 7H9/DPPC/cholesterol/BSA/Tx MIC (uM); assay type: functional; conditions: 336 h
[11] = system: Mycobacterium tuberculosis; assay: AntiMycobacterium tuberculosis activity 1-week 7H9/cholesterol/BSA/Tx MIC (uM); assay type: functional; conditions: 168 h
[12] = system: Mycobacterium tuberculosis; assay: AntiMycobacterium tuberculosis activity 2-week Alamar Blue 7H9/cholesterol/BSA/Tx MIC (uM); assay type: functional; conditions: 336 h
[13] = system: Mycobacterium tuberculosis; assay: (§1) AntiMycobacterium tuberculosis activity day 10 in 7H9/2.5mM butyrate/pH6/0.1mM nitrite MIC90 (uM); assay type: functional; conditions: 240 h
[14] = system: Mycobacterium tuberculosis; assay: AntiMycobacterium tuberculosis activity day 21 in 7H9/2.5mM butyrate/pH6/0.1mM nitrite MIC90 (uM); assay type: functional; conditions: 504 h
[15] = system: Mycobacterium tuberculosis; assay: as §1; assay type: functional; conditions: 240 h; remark: listed apart in the source
[16] = system: Mycobacterium tuberculosis; assay: AntiMycobacterium tuberculosis activity day 21 MIC99 in 7H9/2.5mM butyrate/pH6/0.1mM nitrite MIC99 (uM); assay type: functional; conditions: 504 h
[17] = system: Mycobacterium tuberculosis; assay: AntiMycobacterium tuberculosis activity Replicating form: Average MIC90 (uM); assay type: functional
HepG2 [18] = assay: HepG2 CC50 (uM) Cytotoxicity; assay type: functional; conditions: Homo sapiens
Plasmodium falciparum [19] = assay: Antimalarial activity: Asexual Blood Stage Plasmodium falciparum 3D7 IC50 (uM); assay type: functional, organism-based
Plasmodium berghei = assay: Antimalarial activity: Liver Stage Plasmodium berghei sporozoite Luciferase assay: inhibition at 10 uM (%); assay type: functional
Plasmodium falciparum [20] = assay: Antimalarial activity: Gametocytes Plasmodium falciparum NF54 Gametocytes Stage V: inhibition at 10 uM (%); assay type: functional
Plasmodium falciparum [21] = assay: Antimalarial activity: Asexual Blood Stage Plasmodium falciparum W2 IC50 (uM); assay type: functional, organism-based
HepG2 [22] = assay: Cytotoxicity data HepG2 CC20 (uM); assay type: functional

Compound: c1ccc(C[C@@H]2CN(c3nccc(Oc4ccc(-n5ccnc5)cc4)n3)CCN2)cc1
- MIC90 [1]: 38.1 µM (≈ 15.7 µg/mL)
- MIC [2]: 37 µM (≈ 15.3 µg/mL)
- MIC [3]: 37 µM (≈ 15.3 µg/mL)
- MIC [4]: 50 µM (≈ 20.6 µg/mL)
- MIC [5]: 50 µM (≈ 20.6 µg/mL)
- MIC [6]: 19 µM (≈ 7.84 µg/mL)
- MIC [7]: 37 µM (≈ 15.3 µg/mL)
- MIC [8]: 50 µM (≈ 20.6 µg/mL)
- MIC [9]: 25 µM (≈ 10.3 µg/mL)
- MIC [10]: 37 µM (≈ 15.3 µg/mL)
- MIC [11]: 9.4 µM (≈ 3.88 µg/mL)
- MIC [12]: 12.5 µM (≈ 5.16 µg/mL)
- MIC90 [13]: 25 µM (≈ 10.3 µg/mL)
- MIC90 [14]: 25 µM (≈ 10.3 µg/mL)
- MIC90 [15]: 50 µM (≈ 20.6 µg/mL)
- MIC [16]: 50 µM (≈ 20.6 µg/mL)
- MIC90 [17]: 16.5 µM (≈ 6.82 µg/mL)
- CC50 (HepG2 [18]): 29 µM

Compound: O=C1O[C@@H](CO)CN1c1cc(F)c(C2=CCN(Cc3ccccc3)CC2)c(F)c1
- MIC90 [1]: 19 µM (≈ 7.6 µg/mL)
- MIC [2]: 9.4 µM (≈ 3.76 µg/mL)
- MIC [3]: 9.4 µM (≈ 3.76 µg/mL)
- MIC [4]: 4.7 µM (≈ 1.88 µg/mL)
- MIC [5]: 4.7 µM (≈ 1.88 µg/mL)
- MIC [6]: 3.13 µM (≈ 1.25 µg/mL)
- MIC [7]: 4.7 µM (≈ 1.88 µg/mL)
- MIC [8]: 4.7 µM (≈ 1.88 µg/mL)
- MIC [9]: 9.4 µM (≈ 3.76 µg/mL)
- MIC [10]: 9.4 µM (≈ 3.76 µg/mL)
- MIC [11]: 4.7 µM (≈ 1.88 µg/mL)
- MIC [12]: 4.7 µM (≈ 1.88 µg/mL)
- MIC90 [13]: 50 µM (≈ 20 µg/mL)
- MIC90 [14]: 50 µM (≈ 20 µg/mL)
- MIC90 [15]: > 50 µM
- MIC [16]: > 50 µM
- MIC90 [17]: 11.6 µM (≈ 4.65 µg/mL)
- CC50 (HepG2 [18]): 38.8 µM

Compound: FC(F)(F)c1nnc2ccc(Cl)nn12
- MIC90 [1]: 7.75 µM (≈ 1.72 µg/mL)
- MIC [2]: 0.6 µM (≈ 0.134 µg/mL)
- MIC [3]: 1.2 µM (≈ 0.267 µg/mL)
- MIC [4]: 3.13 µM (≈ 0.697 µg/mL)
- MIC [5]: 6.25 µM (≈ 1.39 µg/mL)
- MIC [6]: 4.7 µM (≈ 1.05 µg/mL)
- MIC [7]: 3.13 µM (≈ 0.697 µg/mL)
- MIC [8]: 4.7 µM (≈ 1.05 µg/mL)
- MIC [9]: 4.7 µM (≈ 1.05 µg/mL)
- MIC [10]: 6.25 µM (≈ 1.39 µg/mL)
- MIC [11]: 4.7 µM (≈ 1.05 µg/mL)
- MIC [12]: 6.25 µM (≈ 1.39 µg/mL)
- MIC90 [13]: 3.12 µM (≈ 0.694 µg/mL)
- MIC90 [14]: 50 µM (≈ 11.1 µg/mL)
- MIC90 [15]: > 50 µM
- MIC [16]: > 50 µM
- MIC90 [17]: 6.37 µM (≈ 1.42 µg/mL)
- CC50 (HepG2 [18]): > 100 µM

Compound: COc1cc(C(F)(F)F)nc2ccc(C)c(N)c12
- MIC90 [1]: 16.1 µM (≈ 4.12 µg/mL)
- MIC [2]: 0.2 µM (≈ 0.0512 µg/mL)
- MIC [3]: 0.6 µM (≈ 0.154 µg/mL)
- MIC [4]: > 50 µM
- MIC [5]: > 50 µM
- MIC [6]: 12.5 µM (≈ 3.2 µg/mL)
- MIC [7]: 25 µM (≈ 6.41 µg/mL)
- MIC [8]: > 50 µM
- MIC [9]: 4.7 µM (≈ 1.2 µg/mL)
- MIC [10]: 50 µM (≈ 12.8 µg/mL)
- MIC [11]: 2.3 µM (≈ 0.589 µg/mL)
- MIC [12]: 3.13 µM (≈ 0.802 µg/mL)
- MIC90 [13]: 3.12 µM (≈ 0.799 µg/mL)
- MIC90 [14]: 6.25 µM (≈ 1.6 µg/mL)
- MIC90 [15]: > 50 µM
- MIC [16]: > 50 µM
- MIC90 [17]: > 100 µM
- CC50 (HepG2 [18]): > 100 µM

Compound: COC(=O)c1c(NC(=O)c2c(F)c(F)c(F)c(F)c2F)sc2c1CCCCC2
- MIC90 [1]: 3.8 µM (≈ 1.59 µg/mL)
- MIC [2]: 0.78 µM (≈ 0.327 µg/mL)
- MIC [3]: 0.78 µM (≈ 0.327 µg/mL)
- MIC [4]: 1.2 µM (≈ 0.503 µg/mL)
- MIC [5]: 2.3 µM (≈ 0.965 µg/mL)
- MIC [6]: 1.56 µM (≈ 0.654 µg/mL)
- MIC [7]: 0.78 µM (≈ 0.327 µg/mL)
- MIC [8]: 1.2 µM (≈ 0.503 µg/mL)
- MIC [9]: 0.6 µM (≈ 0.252 µg/mL)
- MIC [10]: 1.56 µM (≈ 0.654 µg/mL)
- MIC [11]: 0.6 µM (≈ 0.252 µg/mL)
- MIC [12]: 1.56 µM (≈ 0.654 µg/mL)
- MIC90 [13]: 1.5 µM (≈ 0.629 µg/mL)
- MIC90 [14]: 3.1 µM (≈ 1.3 µg/mL)
- MIC90 [15]: 3.1 µM (≈ 1.3 µg/mL)
- MIC [16]: 3.1 µM (≈ 1.3 µg/mL)
- MIC90 [17]: 0.86 µM (≈ 0.361 µg/mL)
- CC50 (HepG2 [18]): 7.5 µM

Compound: O=C(NCCN1CCCC1)c1cc(NCCCCN2CCC(F)(F)CC2)nc2ccc(Cl)cc12
- IC50 (Plasmodium falciparum [19]): 0.01 µM
- inhibition (Plasmodium berghei): Series known to be active
- inhibition (Plasmodium falciparum [20]): Series known to be active

Compound: Cc1cc(Nc2ccc(C(F)(F)F)cc2)n2ccnc2n1
- IC50 (Plasmodium falciparum [19]): 0.38 µM
- IC50 (Plasmodium falciparum [21]): 0.36 µM
- inhibition (Plasmodium berghei): Series known to be active
- inhibition (Plasmodium falciparum [20]): Series known to be inactive

Compound: Nc1ncnc2c1ncn2C[C@@H](O)[C@@H](O)C(=O)O [ERITADENINE]
- CC20 (HepG2 [22]): >80 µM

Compound: COc1ccc(-c2cc(NC(=O)c3ccc(F)cc3Cl)ccc2OC)cc1
- MIC90 [1]: 67.7 µM (≈ 26.1 µg/mL)
- MIC [2]: 3.13 µM (≈ 1.21 µg/mL)
- MIC [3]: 19 µM (≈ 7.33 µg/mL)
- MIC [6]: 50 µM (≈ 19.3 µg/mL)
- MIC [11]: 25 µM (≈ 9.65 µg/mL)
- CC50 (HepG2 [18]): > 100 µM

Compound: O=C(COc1cccc(F)c1)Nc1nc(-c2ccccn2)cs1
- MIC90 [1]: 27.5 µM (≈ 9.07 µg/mL)
- MIC [2]: 1.2 µM (≈ 0.395 µg/mL)
- MIC [3]: 2.3 µM (≈ 0.758 µg/mL)
- MIC [4]: 37 µM (≈ 12.2 µg/mL)
- MIC [5]: 50 µM (≈ 16.5 µg/mL)
- MIC [6]: 50 µM (≈ 16.5 µg/mL)
- MIC [7]: 19 µM (≈ 6.26 µg/mL)
- MIC [8]: 37 µM (≈ 12.2 µg/mL)
- MIC [9]: 19 µM (≈ 6.26 µg/mL)
- MIC [10]: 50 µM (≈ 16.5 µg/mL)
- MIC [11]: 19 µM (≈ 6.26 µg/mL)
- MIC [12]: 37 µM (≈ 12.2 µg/mL)
- MIC90 [13]: 12.5 µM (≈ 4.12 µg/mL)
- MIC90 [14]: 25 µM (≈ 8.23 µg/mL)
- MIC90 [15]: > 50 µM
- MIC [16]: > 50 µM
- MIC90 [17]: 84.4 µM (≈ 27.8 µg/mL)

Compound: O=C(C1CCN(c2nnnn2-c2ccccc2)CC1)N1CCc2ccccc2C1
- inhibition (Plasmodium falciparum [19]): inactive
- CC20 (HepG2 [22]): >80 µM

Source: ChEMBL document CHEMBL3832761, “MMV Pathogen Box Bioactivity Data” (2017)
